In patent US10123993B2, “Cyclic ureas as inhibitors of rock” (BRISTOL-MYERS SQUIBB COMPANY, priority 2015, dated 2018):
Where a name gives a salt, the structure may show the parent alone.

Target: ROCK2 (Homo sapiens, UniProt O75116)
Test: ROCK2 kinase inhibition assay (Caliper LABCHIP, FITC peptide substrate)
Assay type: biochemical
Details: 5 μM ATP, 1.5 μM peptide substrate; value ranges
Procedure, shortened: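 Rho kinase with 5 μM ATP and 1.5 μM FITC-AHA-AKRRRLSSLRA-OH peptide in HEPES pH 7.5, 20 mM MgCl2, 0.015% Brij-35, 4 mM DTT, DMSO <2%. EDTA stop; phospho and non-phospho peptide separated on LabChip. IC50 from dose-response fit.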

ROCK2, sequence (O75116 whole entry, species assumed): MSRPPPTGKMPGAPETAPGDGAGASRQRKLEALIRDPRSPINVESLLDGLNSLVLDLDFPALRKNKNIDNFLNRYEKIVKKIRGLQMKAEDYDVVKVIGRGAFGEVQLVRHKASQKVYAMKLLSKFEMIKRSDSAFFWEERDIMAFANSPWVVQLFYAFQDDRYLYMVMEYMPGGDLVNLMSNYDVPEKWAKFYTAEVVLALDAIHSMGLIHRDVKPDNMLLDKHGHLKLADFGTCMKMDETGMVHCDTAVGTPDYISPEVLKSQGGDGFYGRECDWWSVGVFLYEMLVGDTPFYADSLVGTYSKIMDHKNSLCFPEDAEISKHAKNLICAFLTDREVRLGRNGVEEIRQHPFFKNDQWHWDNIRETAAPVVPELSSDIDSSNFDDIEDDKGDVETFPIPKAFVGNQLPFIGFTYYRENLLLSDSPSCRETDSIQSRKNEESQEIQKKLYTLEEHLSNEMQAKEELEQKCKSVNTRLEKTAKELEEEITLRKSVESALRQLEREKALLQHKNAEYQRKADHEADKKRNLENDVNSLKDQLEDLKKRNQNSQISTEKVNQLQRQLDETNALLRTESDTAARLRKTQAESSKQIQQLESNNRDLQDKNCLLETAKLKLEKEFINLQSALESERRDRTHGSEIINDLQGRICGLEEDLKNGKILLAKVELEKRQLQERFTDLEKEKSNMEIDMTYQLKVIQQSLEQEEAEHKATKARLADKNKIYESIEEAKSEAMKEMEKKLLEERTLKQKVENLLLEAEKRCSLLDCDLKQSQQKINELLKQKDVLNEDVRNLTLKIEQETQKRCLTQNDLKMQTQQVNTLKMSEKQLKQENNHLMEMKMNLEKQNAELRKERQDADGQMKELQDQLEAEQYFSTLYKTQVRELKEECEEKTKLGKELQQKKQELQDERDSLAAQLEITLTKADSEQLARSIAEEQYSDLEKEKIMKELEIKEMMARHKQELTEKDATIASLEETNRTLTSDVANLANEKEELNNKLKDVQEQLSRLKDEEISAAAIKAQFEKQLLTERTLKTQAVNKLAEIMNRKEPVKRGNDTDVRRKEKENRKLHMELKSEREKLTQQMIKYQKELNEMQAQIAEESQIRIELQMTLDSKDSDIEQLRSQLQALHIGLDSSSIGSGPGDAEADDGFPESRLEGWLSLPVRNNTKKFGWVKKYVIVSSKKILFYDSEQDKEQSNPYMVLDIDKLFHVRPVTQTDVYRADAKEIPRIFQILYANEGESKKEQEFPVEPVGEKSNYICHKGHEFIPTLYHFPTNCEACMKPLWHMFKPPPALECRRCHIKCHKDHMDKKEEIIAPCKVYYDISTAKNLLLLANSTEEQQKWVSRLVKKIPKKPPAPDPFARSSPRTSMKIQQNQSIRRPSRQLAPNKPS

SMILES | IC50 [nM]
O=C1N(Cc2ccccc2)CC(CO)N1c1ccc(-c2cn[nH]c2)cc1 (stereo not shown) [Example 30, 3-(4-(1H-Pyrazol-4-yl)phenyl)-1-benzyl-4-(hydroxymethyl)imidazolidin-2-one] | 20.1 to 200
COc1cc(N2CCN(Cc3ccccc3-c3cn[nH]c3)C2=O)ccc1-c1cn[nH]c1 [Example 31, 1-(2-(1H-Pyrazol-4-yl)benzyl)-3-(3-methoxy-4-(1H-pyrazol-4-yl)phenyl)imidazolidin-2-one, TFA] | 20.1 to 200
O=C(O)C1CN(c2ccc(-c3cn[nH]c3)cc2)C(=O)N1Cc1cccc(F)c1 (stereo not shown) [Example 32, 1-(4-(1H-Pyrazol-4-yl)phenyl)-3-(3-fluorobenzyl)-2-oxoimidazolidine-4-carboxylic Acid] | 200 to 2000
O=C(O)C1CN(Cc2cccc(F)c2)C(=O)N1c1ccc(-c2cn[nH]c2)cc1 (stereo not shown) [Example 33, 3-(4-(1H-Pyrazol-4-yl)phenyl)-1-(3-fluorobenzyl)-2-oxoimidazolidine-4-carboxylic Acid] | 200 to 2000
COC(=O)C1CN(Cc2cccc(F)c2)C(=O)N1c1ccc(-c2cn[nH]c2)cc1 (stereo not shown) [Example 34, Methyl 3-(4-(1H-pyrazol-4-yl)phenyl)-1-(3-fluorobenzyl)-2-oxoimidazolidine-4-carboxylate] | 20.1 to 200
COc1cccc(CN2CC(C(=O)O)N(c3ccc(-c4cn[nH]c4)cc3)C2=O)c1 (stereo not shown) [Example 35, 3-(4-(1H-Pyrazol-4-yl)phenyl)-1-(3-methoxybenzyl)-2-oxoimidazolidine-4-carboxylic Acid] | 20.1 to 200
CCOC(=O)C1CN(Cc2cccc(OC)c2)C(=O)N1c1ccc(-c2cn[nH]c2)cc1 (stereo not shown) [Example 36, Ethyl 3-(4-(1H-pyrazol-4-yl)phenyl)-1-(3-methoxybenzyl)-2-oxoimidazolidine-4-carboxylate] | 2.1 to 20
O=C1N(c2ccc(-c3cn[nH]c3)cc2)CC(CO)N1Cc1ccccc1 (stereo not shown) [Example 38, 1-(4-(1H-Pyrazol-4-yl)phenyl)-3-benzyl-4-(hydroxymethyl)imidazolidin-2-one] | 2.1 to 20
O=C1N(Cc2cccc(F)c2)CC(CO)N1c1ccc(-c2cn[nH]c2)cc1 (stereo not shown) [Example 39, 3-(4-(1H-Pyrazol-4-yl)phenyl)-1-(3-fluorobenzyl)-4-(hydroxymethyl)imidazolidin-2-one] | 2.1 to 20
COc1cccc(CN2C(=O)N(c3ccc(-c4cn[nH]c4)c(OC)c3)CC2CO)c1 (stereo not shown) [Example 40, 4-(Hydroxymethyl)-1-(3-methoxy-4-(1H-pyrazol-4-yl)phenyl)-3-(3-methoxybenzyl)imidazolidin-2-one] | < 2
COc1cc(N2CC(CO)N(Cc3ccccc3)C2=O)ccc1-c1cn[nH]c1 (stereo not shown) [Example 41, 3-Benzyl-4-(hydroxymethyl)-1-(3-methoxy-4-(1H-pyrazol-4-yl)phenyl)imidazolidin-2-one] | 2.1 to 20
O=C1N(Cc2cccc(F)c2)CCN1c1ccc(-c2ccncc2F)cc1 [Example 49, 1-(3-fluorobenzyl)-3-(4-(3-fluoropyridin-4-yl)phenyl)imidazolidin-2-one] | 20.1 to 200
COc1cccc(CN2CCN(c3ccc(-c4ccncc4F)cc3)C2=O)c1 [Example 50, 1-(4-(3-fluoropyridin-4-yl)phenyl)-3-(3-methoxybenzyl)imidazolidin-2-one] | 20.1 to 200
O=C1N(Cc2cccc(F)c2)CCN1c1ccc(-c2ccnc(F)c2)cc1 [Example 51, 1-(3-fluorobenzyl)-3-(4-(2-fluoropyridin-4-yl)phenyl)imidazolidin-2-one] | 200 to 2000
O=C1N(Cc2ccccc2)CCN1c1ccc(-c2ccncc2F)cc1 [Example 52, 1-benzyl-3-(4-(3-fluoropyridin-4-yl)phenyl)imidazolidin-2-one] | 20.1 to 200
O=C1N(CCc2ccccc2)CCN1c1ccc(-c2ccncc2F)cc1 [Example 53, 1-(4-(3-fluoropyridin-4-yl)phenyl)-3-phenethylimidazolidin-2-one] | 200 to 2000
COc1cccc(CN2CCN(c3ccc(-c4ccnc(F)c4)cc3)C2=O)c1 [Example 54, 1-(4-(2-fluoropyridin-4-yl)phenyl)-3-(3-methoxybenzyl)imidazolidin-2-one] | 20.1 to 200

Second part, the compound after the results:

IC50 [nM] | SMILES
20.1 to 200 | O=C1N(Cc2ccccc2)CCN1c1ccc(-c2ccncc2)cc1 [Example 55, 1-benzyl-3-(4-(pyridin-4-yl)phenyl)imidazolidin-2-one, TFA]
20.1 to 200 | O=C1N(Cc2cccc(F)c2)CCN1c1ccc(-c2ccncc2)cc1 [Example 56, 1-(3-fluorobenzyl)-3-(4-(pyridin-4-yl)phenyl)imidazolidin-2-one, TFA]
200 to 2000 | O=C1N(Cc2ccccc2F)CCN1c1ccc(-c2ccncc2)cc1 [Example 57, 1-(2-fluorobenzyl)-3-(4-(pyridin-4-yl)phenyl)imidazolidin-2-one, TFA]
200 to 2000 | COc1ccc(F)c(CN2CCN(c3ccc(-c4ccncc4)c(OC)c3)C2=O)c1 [Example 58, 1-(2-fluoro-5-methoxybenzyl)-3-(3-methoxy-4-(pyridin-4-yl)phenyl)imidazolidin-2-one, TFA]
20.1 to 200 | COc1cc(N2CCN(Cc3cccc(F)c3)C2=O)ccc1-c1ccncc1 [Example 59, 1-(3-fluorobenzyl)-3-(3-methoxy-4-(pyridin-4-yl)phenyl)imidazolidin-2-one, TFA]
20.1 to 200 | O=C1N(Cc2ccccc2)CCN1c1ccc(-c2cnoc2)cc1 [Example 60, 1-benzyl-3-(4-(isoxazol-4-yl)phenyl)imidazolidin-2-one]
200 to 2000 | O=C1N(Cc2cccc(F)c2)CCN1c1ccc(-c2cnoc2)cc1 [Example 61, 1-(3-fluorobenzyl)-3-(4-(isoxazol-4-yl)phenyl)imidazolidin-2-one]
20.1 to 200 | COc1cccc(CN2CCN(c3ccc(-c4ccnc(N)c4)cc3)C2=O)c1 [Example 62, 1-(4-(2-Aminopyridin-4-yl)phenyl)-3-(3-methoxybenzyl)imidazolidin-2-one, TFA]
20.1 to 200 | COc1cccc(CN2CCN(c3ccc(-c4ccnc(N)n4)cc3)C2=O)c1 [Example 63, 1-(4-(2-Aminopyrimidin-4-yl)phenyl)-3-(3-methoxybenzyl)imidazolidin-2-one]
200 to 2000 | COc1cccc(CN2CCN(c3ccc(-c4ncnc5[nH]ccc45)cc3)C2=O)c1 [Example 64, 1-(4-(7H-Pyrrolo[2,3-d]pyrimidin-4-yl)phenyl)-3-(3-methoxybenzyl)imidazolidin-2-one]
2.1 to 20 | COc1cccc(CN2CCN(c3ccc(-c4ccnc5[nH]ccc45)cc3)C2=O)c1 [Example 65, 1-(4-(1H-Pyrrolo[2,3-b]pyridin-4-yl)phenyl)-3-(3-methoxybenzyl)imidazolidin-2-one]
200 to 2000 | COc1ccccc1CCn1ccn(-c2ccc(-c3cn[nH]c3)cc2)c1=O [Example 66, 1-(4-(1H-Pyrazol-4-yl)phenyl)-3-(2-methoxyphenethyl)-1H-imidazol-2(3H)-one]
20.1 to 200 | O=c1n(Cc2ccc(F)cc2)ccn1-c1ccc(-c2cn[nH]c2)cc1 [Example 67, 1-(4-(1H-pyrazol-4-yl)phenyl)-3-(4-fluorobenzyl)-1H-imidazol-2(3H)-one]
20.1 to 200 | O=c1n(Cc2c(F)cccc2F)ccn1-c1ccc(-c2cn[nH]c2)cc1 [Example 68, 1-(4-(1H-pyrazol-4-yl)phenyl)-3-(2,6-difluorobenzyl)-1H-imidazol-2(3H)-one]
20.1 to 200 | O=c1n(Cc2ccccc2F)ccn1-c1ccc(-c2cn[nH]c2)cc1 [Example 69, 1-(4-(1H-pyrazol-4-yl)phenyl)-3-(2-fluorobenzyl)-1H-imidazol-2(3H)-one]
20.1 to 200 | COc1cccc(CN2CC(=O)N(c3ccc(-c4cn[nH]c4)cc3)C2=O)c1 [Example 80, 3-(4-(1H-Pyrazol-4-yl)phenyl)-1-(3-methoxybenzyl)imidazolidine-2,4-dione]
200 to 2000 | O=C1CN(Cc2cccc(F)c2)C(=O)N1c1ccc(-c2cn[nH]c2)cc1 [Example 81, 3-(4-(1H-pyrazol-4-yl)phenyl)-1-(3-fluorobenzyl)imidazolidine-2,4-dione]
20.1 to 200 | O=C1CN(Cc2ccccc2Cl)C(=O)N1c1ccc(-c2cn[nH]c2)cc1 [Example 82, 3-(4-(1H-pyrazol-4-yl)phenyl)-1-(2-chlorobenzyl)imidazolidine-2,4-dione]
200 to 2000 | O=C1CN(Cc2cc(F)ccc2F)C(=O)N1c1ccc(-c2cn[nH]c2)cc1 [Example 83, 3-(4-(1H-pyrazol-4-yl)phenyl)-1-(2,5-difluorobenzyl)imidazolidine-2,4-dione]
20.1 to 200 | COc1cc(F)cc(CN2CC(=O)N(c3ccc(-c4cn[nH]c4)cc3)C2=O)c1 [Example 84, 3-(4-(1H-pyrazol-4-yl)phenyl)-1-(3-fluoro-5-methoxybenzyl)imidazolidine-2,4-dione]
200 to 2000 | O=C1CN(CCc2ccccc2)C(=O)N1c1ccc(-c2cn[nH]c2)cc1 [Example 85, 3-(4-(1H-pyrazol-4-yl)phenyl)-1-phenethylimidazolidine-2,4-dione]
200 to 2000 | O=C1CN(Cc2ccccc2F)C(=O)N1c1ccc(-c2cn[nH]c2)cc1 [Example 86, 3-(4-(1H-pyrazol-4-yl)phenyl)-1-(2-fluorobenzyl)imidazolidine-2,4-dione]
200 to 2000 | O=C1CN(Cc2ccccc2)C(=O)N1c1ccc(-c2cn[nH]c2)cc1 [Example 87, 3-(4-(1H-pyrazol-4-yl)phenyl)-1-benzylimidazolidine-2,4-dione]
200 to 2000 | COc1cc(N2C(=O)CN(Cc3ccccc3)C2=O)ccc1-c1cn[nH]c1 [Example 88, 1-benzyl-3-(3-methoxy-4-(1H-pyrazol-4-yl)phenyl)imidazolidine-2,4-dione]
200 to 2000 | COc1cc(N2C(=O)CN(Cc3ccccc3Cl)C2=O)ccc1-c1cn[nH]c1 [Example 89, 1-(2-chlorobenzyl)-3-(3-methoxy-4-(1H-pyrazol-4-yl)phenyl)imidazolidine-2,4-dione]
20.1 to 200 | COc1cc(N2C(=O)CN(Cc3cccc(F)c3)C2=O)ccc1-c1cn[nH]c1 [Example 90, 1-(3-fluorobenzyl)-3-(3-methoxy-4-(1H-pyrazol-4-yl)phenyl)imidazolidine-2,4-dione]
